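Exposure lasted 48 hours, with cells grown in 96-well plates and compounds tested at five concentrations. At the GI50, growth is halved. TGI is the concentration that stops growth completely.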
Experiments:
Test in all cases: growth of human tumour cells (NCI), 48 h
[1] = system: A498 renal
[2] = system: SF-539 CNS
[3] = system: EKVX NSCLC
[4] = system: HT29 colon
[5] = system: HOP-62 NSCLC
[6] = system: TK-10 renal
[7] = system: SF-268 CNS
[8] = system: SK-MEL-5 melanoma
[9] = system: NCI-H522 lung
[10] = system: HS 578T breast
[11] = system: NCI-H226 lung
[12] = system: 786-0 renal
[13] = system: T-47D breast
[14] = system: CAKI-1 renal
[15] = system: COLO 205 colon
[16] = system: NCI/ADR-RES ovarian
[17] = system: KM12 colon
[18] = system: HL-60(TB) leukemia
[19] = system: MDA-MB-435
[20] = system: UACC-257 melanoma
[21] = system: SF-295 CNS
[22] = system: SK-MEL-28 melanoma
[23] = system: RXF 393 renal
[24] = system: HCT-15 colon
[25] = system: NCI-H23 lung
[26] = system: OVCAR-5 ovarian
[27] = system: BT-549 breast
[28] = system: UACC-62 melanoma
[29] = system: SN12C renal
[30] = system: A549 NSCLC
[31] = system: MDA-MB-231 breast
[32] = system: PC-3 prostate
[33] = system: M14 melanoma
[34] = system: RPMI-8226 leukemia
[35] = system: HCC-2998 colon
[36] = system: SNB-19 CNS
[37] = system: LOX IMVI melanoma
[38] = system: IGROV1 ovarian
[39] = system: SK-OV-3 ovarian
[40] = system: SNB-75 CNS
[41] = system: UO-31 renal
[42] = system: NCI-H460 lung
[43] = system: K-562 leukemia
[44] = system: SW-620 colon
[45] = system: MALME-3M melanoma
[46] = system: SR leukemia
[47] = system: CCRF-CEM leukemia
[48] = system: ACHN renal
[49] = system: HOP-92 NSCLC
[50] = system: MDA-MB-468 breast
[51] = system: OVCAR-3 ovarian
[52] = system: OVCAR-4 ovarian
[53] = system: MOLT-4 leukemia
[54] = system: DU-145 prostate
[55] = system: HCT-116 colon
[56] = system: OVCAR-8 ovarian
[57] = system: U251 CNS
[58] = system: SK-MEL-2 melanoma
[59] = system: MCF7 breast

For `CNS(=O)(=O)N1CCc2c(Br)c3c(c(OC)c2C1CCc1ccccc1)OCO3` (stereo unspecified), the GI50 [1] was 15.7 µM, the TGI [1] was 34.6 µM and the GI50 [2] was 15.2 µM. For the same compound, the TGI [2] was 30.1 µM, the GI50 [3] was 14.1 µM and the TGI [3] was over 100 µM. The GI50 [4] was 18.7 µM, the TGI [4] was over 100 µM and the GI50 [5] was 13.5 µM. The TGI [5] was 37.5 µM, the GI50 [6] was 34.4 µM and the TGI [6] was over 100 µM. The GI50 [7] was 16.8 µM, the TGI [7] was over 100 µM and the GI50 [8] was 15.4 µM. It also gave a TGI [8] of 28.8 µM, a GI50 [9] of 13 µM and a TGI [9] of 38.7 µM. It also gave a GI50 [10] of 12.7 µM, a TGI [10] of 42 µM and a GI50 [11] of 10.8 µM. For the same compound, the TGI [11] was 25.8 µM, the GI50 [12] was 19.6 µM and the TGI [12] was 62.5 µM. The GI50 [13] was 9.48 µM, the TGI [13] was 67.4 µM and the GI50 [14] was 7.25 µM. The TGI [14] was over 100 µM, the GI50 [15] was 14.9 µM and the TGI [15] was 30.7 µM. It also gave a GI50 [16] of 14 µM, a TGI [16] of 86.9 µM and a GI50 [17] of 19.4 µM. It also gave a TGI [17] of 78.1 µM, a GI50 [18] of 22.9 µM and a TGI [18] of 61.9 µM. It also gave a GI50 [19] of 12.5 µM, a TGI [19] of 31.3 µM and a GI50 [20] of 20.9 µM. For the same compound, the TGI [20] was 51.5 µM, the GI50 [21] was 11.1 µM and the TGI [21] was 31.8 µM. It also gave a GI50 [22] of 15.7 µM, a TGI [22] of 31.1 µM and a GI50 [23] of 13.5 µM. The TGI [23] was 31.4 µM, the GI50 [24] was 23.1 µM and the TGI [24] was over 100 µM. It also gave a GI50 [25] of 17 µM, a TGI [25] of 72.4 µM and a GI50 [26] of 14.1 µM. The TGI [26] was 33.8 µM, the GI50 [27] was 15.4 µM and the TGI [27] was 30 µM. For the same compound, the GI50 [28] was 6.4 µM, the TGI [28] was 21.4 µM and the GI50 [29] was 11.6 µM. For the same compound, the TGI [29] was 24.7 µM, the GI50 [30] was 14.7 µM and the TGI [30] was over 100 µM. For the same compound, the GI50 [31] was 7.33 µM, the TGI [31] was 22.3 µM and the GI50 [32] was 5.67 µM. It also gave a TGI [32] of over 100 µM, a GI50 [33] of 12.2 µM and a TGI [33] of 34 µM. It also gave a GI50 [34] of 12.4 µM, a TGI [34] of over 100 µM and a GI50 [35] of 18.4 µM. The TGI [35] was 75.7 µM, the GI50 [36] was 23.8 µM and the TGI [36] was over 100 µM. It also gave a GI50 [37] of 10.1 µM, a TGI [37] of 23.5 µM and a GI50 [38] of 14.1 µM. The TGI [38] was 81.6 µM, the GI50 [39] was 20.9 µM and the TGI [39] was 73.6 µM. The GI50 [40] was 4.24 µM, the TGI [40] was 34.5 µM and the GI50 [41] was 10.2 µM. The TGI [41] was 69.1 µM, the GI50 [42] was 13.7 µM and the TGI [42] was 30.1 µM. It also gave a GI50 [43] of 17.3 µM, a TGI [43] of over 100 µM and a GI50 [44] of 21.8 µM. It also gave a TGI [44] of over 100 µM, a GI50 [45] of 17.8 µM and a TGI [45] of 34.8 µM. For the same compound, the GI50 [46] was 24 µM, the TGI [46] was over 100 µM and the GI50 [47] was 24.3 µM. It also gave a TGI [47] of over 100 µM, a GI50 [48] of 20.3 µM and a TGI [48] of 92.2 µM. For the same compound, the GI50 [49] was 11.4 µM, the TGI [49] was 33.4 µM and the GI50 [50] was 9.95 µM. The TGI [50] was 35.5 µM, the GI50 [51] was 13.7 µM and the TGI [51] was 29.9 µM. It also gave a GI50 [52] of 14.7 µM, a TGI [52] of 85 µM and a GI50 [53] of 10.4 µM. It also gave a TGI [53] of over 100 µM, a GI50 [54] of 29.2 µM and a TGI [54] of over 100 µM. The GI50 [55] was 6.64 µM, the TGI [55] was 26.3 µM and the GI50 [56] was 24.6 µM. It also gave a TGI [56] of over 100 µM, a GI50 [57] of 15.6 µM and a TGI [57] of 35.6 µM. It also gave a GI50 [58] of 14.5 µM, a TGI [58] of 30.7 µM and a GI50 [59] of 16.6 µM. It also gave a TGI [59] of 90.7 µM.

In the case of `COc1ccsc1/C=N/NC(=O)c1[nH]c2ccc(Br)cc2c1-c1ccccc1`, the GI50 [1] is reported as 15.3 µM, the TGI [1] is reported as 53.3 µM and the GI50 [2] is reported as 0.233 µM. It also gave a TGI [2] of 0.584 µM, a GI50 [3] of 0.502 µM and a TGI [3] of over 100 µM. It also gave a GI50 [4] of 0.271 µM, a TGI [4] of 0.698 µM and a GI50 [5] of 0.468 µM. It also gave a TGI [5] of over 45.1 µM, a GI50 [6] of 7.01 µM and a TGI [6] of 63.9 µM. For the same compound, the GI50 [7] was 0.997 µM, the TGI [7] was 39.6 µM and the GI50 [8] was 0.315 µM. The TGI [8] was 1.15 µM, the GI50 [9] was 0.187 µM and the TGI [9] was 0.781 µM. The GI50 [10] was 0.338 µM, the TGI [10] was 65.2 µM and the GI50 [11] was 0.934 µM. It also gave a TGI [11] of 9.95 µM, a GI50 [12] of 0.563 µM and a TGI [12] of 12.6 µM. For the same compound, the GI50 [13] was 0.449 µM, the TGI [13] was 25.7 µM and the GI50 [14] was 0.464 µM. For the same compound, the TGI [14] was over 56.6 µM, the GI50 [15] was 0.373 µM and the TGI [15] was 1.32 µM. The GI50 [16] was 0.268 µM, the TGI [16] was 0.739 µM and the GI50 [17] was 0.428 µM. It also gave a TGI [17] of 13.8 µM, a GI50 [18] of 0.223 µM and a TGI [18] of 0.605 µM. For the same compound, the GI50 [20] was 2.91 µM, the TGI [20] was over 56.9 µM and the GI50 [21] was 0.317 µM. It also gave a TGI [21] of 13.4 µM, a GI50 [22] of 0.925 µM and a TGI [22] of 40.8 µM. It also gave a GI50 [24] of 0.372 µM, a TGI [24] of 16.4 µM and a GI50 [25] of 0.568 µM. The TGI [25] was 25.2 µM, the GI50 [26] was 0.513 µM and the TGI [26] was 68.2 µM. The GI50 [27] was 0.739 µM, the TGI [27] was 5.26 µM and the GI50 [28] was 0.306 µM. The TGI [28] was 17.5 µM, the GI50 [29] was 0.517 µM and the TGI [29] was 8.11 µM. The GI50 [30] was 0.634 µM, the TGI [30] was over 54.2 µM and the GI50 [31] was 0.437 µM. The TGI [31] was 13 µM, the GI50 [32] was 0.41 µM and the TGI [32] was 39.7 µM. For the same compound, the GI50 [33] was 0.316 µM, the TGI [33] was 13.7 µM and the GI50 [34] was 0.388 µM. The TGI [34] was 3.87 µM, the GI50 [35] was 0.622 µM and the TGI [35] was 14.5 µM. The GI50 [36] was 0.511 µM, the TGI [36] was over 100 µM and the GI50 [37] was 0.519 µM. The TGI [37] was 13.7 µM, the GI50 [38] was 0.582 µM and the TGI [38] was 20.5 µM. It also gave a GI50 [39] of 0.5 µM, a TGI [39] of 34.7 µM and a GI50 [40] of 0.311 µM. The TGI [40] was 2.26 µM, the GI50 [41] was 0.579 µM and the TGI [41] was 34.8 µM. For the same compound, the GI50 [42] was 0.362 µM, the TGI [42] was 11 µM and the GI50 [43] was 0.282 µM. The TGI [43] was over 55.7 µM, the GI50 [44] was 0.413 µM and the TGI [44] was over 100 µM. The GI50 [45] was 0.538 µM, the TGI [45] was 25.7 µM and the GI50 [46] was 0.369 µM. For the same compound, the TGI [46] was over 100 µM, the GI50 [47] was 0.311 µM and the TGI [47] was 5.01 µM. The GI50 [48] was 0.71 µM, the TGI [48] was 20.7 µM and the GI50 [49] was 4.06 µM. For the same compound, the TGI [49] was 29.3 µM, the GI50 [50] was 0.273 µM and the TGI [50] was 0.87 µM. For the same compound, the GI50 [51] was 0.407 µM, the TGI [51] was 15.3 µM and the GI50 [52] was 6.34 µM. It also gave a TGI [52] of over 100 µM, a GI50 [53] of 0.403 µM and a TGI [53] of 11.5 µM. For the same compound, the GI50 [54] was 0.454 µM, the TGI [54] was over 100 µM and the GI50 [55] was 0.369 µM. The TGI [55] was 5.51 µM, the GI50 [56] was 0.395 µM and the GI50 [57] was 0.41 µM. For the same compound, the TGI [57] was 20.5 µM, the GI50 [58] was 0.308 µM and the TGI [58] was 10.7 µM. It also gave a GI50 [59] of 0.332 µM and a TGI [59] of 16.5 µM.
